Data published in patent US8962631B2 (Vertex Pharmaceuticals Incorporated, priority 2010, dated 2015).

Biological target: T1, full-length ATR (Homo sapiens, UniProt Q13535)
T1 construct: Assays were carried out at 25° C. in the presence of 5 nM full-length ATR
Assay: ATR Inhibition Assay (radioactive-phosphate incorporation)
Type: biochemical
Details: for Ki: Ki(app), 10 μM ATP, 800 μM target peptide, 5 nM full-length ATR, 25° C.; for inhibition at 15 µM: at 15 uM compound, read-out: percent inhibition against ATR
Protocol: Compounds were screened for their ability to inhibit ATR kinase using a radioactive-phosphate incorporation assay. Assays were carried out in a mixture of 50 mM Tris/HCl (pH 7.5), 10 mM MgCl2 and 1 mM DTT. Final substrate concentrations were 10 μM [γ-33P]ATP (3 mCi 33P ATP/mmol ATP, Perkin Elmer) and 800 μM target peptide ([…] (SEQ. ID NO: 1)).
Assays were carried out at 25° C. in the presence of 5 nM full-length ATR. An assay stock buffer solution was prepared containing all of the reagents listed above, with the exception of ATP and the test compound of interest. 13.5 μL of the stock solution was placed in a 96 well plate followed by addition of 2 μL of DMSO stock containing serial dilutions of the test compound (typically starting from a final concentration of 15 μM with 3-fold serial dilutions) in duplicate (final DMSO concentration 7%). The plate was pre-incubated for 10 minutes at 25° C. and the reaction initiated by addition of 15 μL [γ-33P]ATP (final concentration 10 μM).
The reaction was stopped after 24 hours by the addition of 30 μL 0.1M phosphoric acid containing 2 mM ATP. A multiscreen phosphocellulose filter 96-well plate (Millipore, Cat no. MAPHN0B50) was pretreated with 100 μL 0.2M phosphoric acid prior to the addition of 45 μL of the stopped assay mixture. The plate was washed with […] 0.2M phosphoric acid. After drying, 100 μL Optiphase ‘SuperMix’ liquid scintillation cocktail (Perkin Elmer) was added to the well prior to scintillation counting (1450 Microbeta Liquid Scintillation Counter, Wallac).
After removing mean background values for all of the data points, Ki(app) data were calculated from non-linear regression analysis of the initial rate data using the Prism software package (GraphPad Prism version 3.0cx for Macintosh, GraphPad Software, San Diego Calif., USA).

T1 sequence (Q13535 whole entry): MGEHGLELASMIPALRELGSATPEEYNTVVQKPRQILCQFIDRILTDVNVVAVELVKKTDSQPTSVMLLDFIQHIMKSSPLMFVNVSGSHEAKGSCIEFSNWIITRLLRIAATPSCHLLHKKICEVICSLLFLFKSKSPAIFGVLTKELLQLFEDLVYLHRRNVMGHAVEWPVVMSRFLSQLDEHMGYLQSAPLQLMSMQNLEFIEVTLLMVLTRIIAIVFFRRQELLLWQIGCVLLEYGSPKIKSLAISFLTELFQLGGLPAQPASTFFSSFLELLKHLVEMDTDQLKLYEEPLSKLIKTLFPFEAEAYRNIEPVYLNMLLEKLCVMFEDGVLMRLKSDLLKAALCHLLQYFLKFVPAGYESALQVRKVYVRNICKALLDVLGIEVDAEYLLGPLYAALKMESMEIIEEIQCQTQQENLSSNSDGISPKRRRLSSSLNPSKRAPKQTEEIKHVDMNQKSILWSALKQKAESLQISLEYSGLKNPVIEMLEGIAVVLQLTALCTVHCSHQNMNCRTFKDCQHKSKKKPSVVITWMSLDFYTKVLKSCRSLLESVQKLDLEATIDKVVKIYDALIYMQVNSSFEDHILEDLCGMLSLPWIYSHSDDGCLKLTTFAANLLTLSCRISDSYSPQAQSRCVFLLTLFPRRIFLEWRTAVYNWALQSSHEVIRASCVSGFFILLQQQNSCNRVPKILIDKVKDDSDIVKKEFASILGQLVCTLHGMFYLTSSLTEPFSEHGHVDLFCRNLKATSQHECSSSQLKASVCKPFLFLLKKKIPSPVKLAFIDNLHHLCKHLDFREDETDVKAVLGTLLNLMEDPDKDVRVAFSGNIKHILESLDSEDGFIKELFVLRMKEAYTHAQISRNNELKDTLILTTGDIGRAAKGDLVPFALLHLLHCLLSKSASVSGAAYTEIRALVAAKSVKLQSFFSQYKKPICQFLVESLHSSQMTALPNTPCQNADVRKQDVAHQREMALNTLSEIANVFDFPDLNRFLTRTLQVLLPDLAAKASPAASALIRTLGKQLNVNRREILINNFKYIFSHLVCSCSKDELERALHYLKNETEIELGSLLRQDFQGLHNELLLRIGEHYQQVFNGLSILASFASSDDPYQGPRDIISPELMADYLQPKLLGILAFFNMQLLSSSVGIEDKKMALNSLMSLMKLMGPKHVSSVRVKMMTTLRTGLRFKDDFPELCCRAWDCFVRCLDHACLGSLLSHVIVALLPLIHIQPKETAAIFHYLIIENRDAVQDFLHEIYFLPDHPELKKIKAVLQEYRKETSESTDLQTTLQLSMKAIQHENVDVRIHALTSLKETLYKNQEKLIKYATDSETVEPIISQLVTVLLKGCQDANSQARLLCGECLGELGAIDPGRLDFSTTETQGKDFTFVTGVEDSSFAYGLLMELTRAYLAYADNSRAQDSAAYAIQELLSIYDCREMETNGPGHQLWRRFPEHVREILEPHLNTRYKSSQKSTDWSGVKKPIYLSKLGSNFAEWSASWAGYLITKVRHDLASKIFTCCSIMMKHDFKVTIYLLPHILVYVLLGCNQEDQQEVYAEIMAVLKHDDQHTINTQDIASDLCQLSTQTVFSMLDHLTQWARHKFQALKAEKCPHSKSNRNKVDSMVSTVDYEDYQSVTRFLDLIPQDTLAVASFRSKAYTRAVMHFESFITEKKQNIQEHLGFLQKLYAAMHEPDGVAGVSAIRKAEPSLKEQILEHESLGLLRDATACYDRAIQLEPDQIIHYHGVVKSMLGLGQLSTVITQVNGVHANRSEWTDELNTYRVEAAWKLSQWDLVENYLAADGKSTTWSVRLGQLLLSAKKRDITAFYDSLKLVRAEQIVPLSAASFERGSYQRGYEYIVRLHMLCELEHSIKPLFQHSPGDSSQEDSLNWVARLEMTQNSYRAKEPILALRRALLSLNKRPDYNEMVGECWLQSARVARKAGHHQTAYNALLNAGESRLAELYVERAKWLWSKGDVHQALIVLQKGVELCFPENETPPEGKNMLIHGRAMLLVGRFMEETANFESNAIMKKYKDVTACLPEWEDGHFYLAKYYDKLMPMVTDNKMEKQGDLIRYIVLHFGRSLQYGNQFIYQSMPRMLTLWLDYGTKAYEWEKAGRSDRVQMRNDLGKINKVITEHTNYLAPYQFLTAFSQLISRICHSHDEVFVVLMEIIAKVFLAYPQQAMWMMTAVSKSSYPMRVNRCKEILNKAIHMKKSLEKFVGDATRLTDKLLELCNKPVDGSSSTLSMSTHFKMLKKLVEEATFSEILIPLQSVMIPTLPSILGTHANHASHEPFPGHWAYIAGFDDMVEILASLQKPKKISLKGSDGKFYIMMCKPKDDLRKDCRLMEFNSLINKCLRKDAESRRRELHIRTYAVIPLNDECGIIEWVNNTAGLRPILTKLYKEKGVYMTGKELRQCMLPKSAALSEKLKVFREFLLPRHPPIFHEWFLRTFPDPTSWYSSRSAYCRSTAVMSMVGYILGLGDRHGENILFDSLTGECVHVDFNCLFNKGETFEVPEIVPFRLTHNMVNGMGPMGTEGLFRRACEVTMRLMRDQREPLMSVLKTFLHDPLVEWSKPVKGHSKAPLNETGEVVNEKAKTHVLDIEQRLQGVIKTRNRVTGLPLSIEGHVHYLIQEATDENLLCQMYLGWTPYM

Row | SMILES | Ki | inhibition at 15 µM
1 | Cc1ccc2nc(-c3nc(C(=O)NCc4ccccc4)cnc3N)[nH]c2c1 [II-43, 5-Amino-N-benzyl-6-(6-methyl-1H-benzimidazol-2-yl)pyrazine-2-carboxamide] | ≤ 500 nM | 
2 | Cc1ccc2nc(-c3nc(C(=O)N(C)c4ccccc4)cnc3N)[nH]c2c1 [II-44, 5-Amino-N-methyl-6-(6-methyl-1H-benzimidazol-2-yl)-N-phenyl-pyrazine-2-carboxamide] | 500 to 1000 nM | 
3 | Cc1ccc2nc(-c3nc(C(=O)Nc4ccc(N5CCN(C)CC5)nc4)cnc3N)[nH]c2c1 [II-45, 5-Amino-6-(6-methyl-1H-benzimidazol-2-yl)-N-[6-(4-methylpiperazin-1-yl)-3-pyridyl]pyrazine-2-carboxamide] | 1000 to 8000 nM | 
4 | CCN(CC)C(=O)c1cnc(N)c(-c2nc3ccc(C)cc3[nH]2)n1 [II-46, 5-Amino-N,N-diethyl-6-(6-methyl-1H-benzimidazol-2-yl)pyrazine-2-carboxamide] | 1000 to 8000 nM | 
5 | COC(=O)c1cnc(N)c(-c2nc3ccc(C)cc3[nH]2)n1 [II-47, Methyl 5-amino-6-(6-methyl-1H-benzo[d]imidazol-2-yl)pyrazine-2-carboxylate] | ≤ 500 nM | 
6 | Cc1ccc2nc(-c3nc(C(=O)NCC#N)cnc3N)[nH]c2c1 [II-48, 5-Amino-N-(cyanomethyl)-6-(6-methyl-1H-benzimidazol-2-yl)pyrazine-2-carboxamide] | ≤ 500 nM | 
7 | Cc1ccc2nc(-c3nc(C(=O)NCC4CCCC4)cnc3N)[nH]c2c1 [II-49, 5-Amino-N-(cyclopentylmethyl)-6-(6-methyl-1H-benzimidazol-2-yl)pyrazine-2-carboxamide] | ≤ 500 nM | 
8 | Cc1ccc2nc(-c3nc(C(=O)NCC(N)=O)cnc3N)[nH]c2c1 [II-50, 5-Amino-N-(2-amino-2-oxo-ethyl)-6-(6-methyl-1H-benzimidazol-2-yl)pyrazine-2-carboxamide] | 1000 to 8000 nM | 
9 | Cc1ccc2nc(-c3nc(C(=O)NCCN4CCCC4)cnc3N)[nH]c2c1 [II-51, 5-Amino-6-(6-methyl-1H-benzimidazol-2-yl)-N-(2-pyrrolidin-1-ylethyl)pyrazine-2-carboxamide] | 500 to 1000 nM | 
10 | Cc1ccc2nc(-c3nc(C(=O)NCC4CCCO4)cnc3N)[nH]c2c1 (centres unmarked) [II-52, 5-Amino-6-(6-methyl-1H-benzimidazol-2-yl)-N-(tetrahydrofuran-2-ylmethyl)pyrazine-2-carboxamide] | ≤ 500 nM | 
11 | Cc1ccc2nc(-c3nc(C(=O)N4CCOCC4)cnc3N)[nH]c2c1 [II-53, [5-Amino-6-(6-methyl-1H-benzimidazol-2-yl)pyrazin-2-yl]-morpholino-methanone] | 1000 to 8000 nM | 
12 | C#CCNC(=O)c1cnc(N)c(-c2nc3ccc(C)cc3[nH]2)n1 [II-54, 5-Amino-6-(6-methyl-1H-benzimidazol-2-yl)-N-prop-2-ynyl-pyrazine-2-carboxamide] | ≤ 500 nM | 
13 | COC(=O)CNC(=O)c1cnc(N)c(-c2nc3ccc(C)cc3[nH]2)n1 [II-55, Methyl 2-[[5-amino-6-(6-methyl-1H-benzimidazol-2-yl)pyrazine-2-carbonyl]amino]acetate] | ≤ 500 nM | 
14 | Cc1ccc2nc(-c3nc(C(=O)NCC4CC4)cnc3N)[nH]c2c1 [II-56, 5-Amino-N-(cyclopropylmethyl)-6-(6-methyl-1H-benzimidazol-2-yl)pyrazine-2-carboxamide] | ≤ 500 nM | 
15 | Cc1ccc2nc(-c3nc(C(=O)N(C)Cc4ccccc4)cnc3N)[nH]c2c1 [II-58, 5-Amino-N-benzyl-N-methyl-6-(6-methyl-1H-benzimidazol-2-yl)pyrazine-2-carboxamide] | 500 to 1000 nM | 
16 | Cc1ccc2nc(-c3nc(C(=O)N[C@@H](C)c4ccccc4)cnc3N)[nH]c2c1 [II-59, 5-Amino-6-(6-methyl-1H-benzimidazol-2-yl)-N-[(1S)-1-phenylethyl]pyrazine-2-carboxamide] | 500 to 1000 nM | 
17 | Cc1ccc2nc(-c3nc(C(=O)N4CCC4)cnc3N)[nH]c2c1 [II-60, [5-Amino-6-(6-methyl-1H-benzimidazol-2-yl)pyrazin-2-yl]-(azetidin-1-yl)methanone] | ≤ 500 nM | 
18 | Cc1ccc2nc(-c3nc(C(=O)NCC(=O)N(C)C)cnc3N)[nH]c2c1 [II-61, 5-Amino-N-[2-(dimethylamino)-2-oxo-ethyl]-6-(6-methyl-1H-benzimidazol-2-yl)pyrazine-2-carboxamide] | 1000 to 8000 nM | 
19 | Cc1ccc2nc(-c3nc(C(=O)NCC(=O)C(C)(C)C)cnc3N)[nH]c2c1 [II-62, 5-Amino-N-(3,3-dimethyl-2-oxo-butyl)-6-(6-methyl-1H-benzimidazol-2-yl)pyrazine-2-carboxamide] | 1000 to 8000 nM | 

Row | SMILES | Ki | inhibition at 15 µM
20 | Cc1ccc2nc(-c3nc(C(=O)NCC4CCCCC4)cnc3N)[nH]c2c1 [II-63, 5-Amino-N-(cyclohexylmethyl)-6-(6-methyl-1H-benzimidazol-2-yl)pyrazine-2-carboxamide] |  | 25 to 45%
21 | Cc1ccc2nc(-c3nc(C(=O)NCc4ccc(F)cc4)cnc3N)[nH]c2c1 [II-64, 5-Amino-N-[(4-fluorophenyl)methyl]-6-(6-methyl-1H-benzimidazol-2-yl)pyrazine-2-carboxamide] | ≤ 500 nM | 
22 | COc1ccc(CNC(=O)c2cnc(N)c(-c3nc4ccc(C)cc4[nH]3)n2)cc1 [II-65, 5-Amino-N-[(4-methoxyphenyl)methyl]-6-(6-methyl-1H-benzimidazol-2-yl)pyrazine-2-carboxamide] | ≤ 500 nM | 
23 | C=CCNC(=O)c1cnc(N)c(-c2nc3ccc(C)cc3[nH]2)n1 [II-66, N-Allyl-5-amino-6-(6-methyl-1H-benzimidazol-2-yl)pyrazine-2-carboxamide] | 1000 to 8000 nM | 
24 | Cc1ccc2nc(-c3nc(C(=O)NCC(C)O)cnc3N)[nH]c2c1 (centres unmarked) [II-67, 5-Amino-N-(2-hydroxypropyl)-6-(6-methyl-1H-benzimidazol-2-yl)pyrazine-2-carboxamide] | 1000 to 8000 nM | 
25 | Cc1ccc2nc(-c3nc(C(=O)NCc4ccco4)cnc3N)[nH]c2c1 [II-68, 5-Amino-N-(2-furylmethyl)-6-(6-methyl-1H-benzimidazol-2-yl)pyrazine-2-carboxamide] | 500 to 1000 nM | 
26 | Cc1ccc2nc(-c3nc(C(=O)NCCc4ccccc4)cnc3N)[nH]c2c1 [II-69, 5-Amino-6-(6-methyl-1H-benzimidazol-2-yl)-N-phenethyl-pyrazine-2-carboxamide] | 500 to 1000 nM | 
27 | Cc1ccc2nc(-c3nc(C(=O)NCc4cccnc4)cnc3N)[nH]c2c1 [II-70, 5-Amino-6-(6-methyl-1H-benzimidazol-2-yl)-N-(3-pyridylmethyl)pyrazine-2-carboxamide] | 500 to 1000 nM | 
28 | COCCNC(=O)c1cnc(N)c(-c2nc3ccc(C)cc3[nH]2)n1 [II-71, 5-Amino-N-(2-methoxyethyl)-6-(6-methyl-1H-benzimidazol-2-yl)pyrazine-2-carboxamide] | 1000 to 8000 nM | 
29 | Cc1ccc2nc(-c3nc(C(=O)NC4CCCC4)cnc3N)[nH]c2c1 [II-72, 5-Amino-N-cyclopentyl-6-(6-methyl-1H-benzimidazol-2-yl)pyrazine-2-carboxamide] |  | 15 to 24%
30 | Cc1ccc2nc(-c3nc(C(=O)NCCC(F)(F)F)cnc3N)[nH]c2c1 [II-73, 5-Amino-6-(6-methyl-1H-benzimidazol-2-yl)-N-(3,3,3-trifluoropropyl)pyrazine-2-carboxamide] | 500 to 1000 nM | 
31 | Cc1ccc2nc(-c3nc(C(=O)NC4CCC4)cnc3N)[nH]c2c1 [II-74, 5-Amino-N-cyclobutyl-6-(6-methyl-1H-benzimidazol-2-yl)pyrazine-2-carboxamide] | 1000 to 8000 nM | 
32 | N#CCNC(=O)c1cnc(N)c(-c2nc3ccccc3[nH]2)n1 [II-75, 5-Amino-6-(1H-benzimidazol-2-yl)-N-(cyanomethyl)pyrazine-2-carboxamide] | ≤ 500 nM | 
33 | Cc1ccc2nc(-c3nc(C(=O)N(C)CC#N)cnc3N)[nH]c2c1 [II-76, 5-Amino-N-(cyanomethyl)-N-methyl-6-(6-methyl-1H-benzimidazol-2-yl)pyrazine-2-carboxamide] | 1000 to 8000 nM | 
34 | Cc1ccc2nc(-c3nc(C(=O)NCCC#N)cnc3N)[nH]c2c1 [II-77, 5-Amino-N-(2-cyanoethyl)-6-(6-methyl-1H-benzimidazol-2-yl)pyrazine-2-carboxamide] | ≤ 500 nM | 
35 | C/C=C/c1cnc(N)c(-c2nc3ccc(C)cc3[nH]2)n1 [II-78, 3-(6-Methyl-1H-benzimidazol-2-yl)-5-[(E)-prop-1-enyl]pyrazin-2-amine] | 500 to 1000 nM | 
36 | COC/C=C/c1cnc(N)c(-c2nc3ccc(C)cc3[nH]2)n1 [II-80, 5-[(E)-3-Methoxyprop-1-enyl]-3-(6-methyl-1H-benzimidazol-2-yl)pyrazin-2-amine] | 1000 to 8000 nM | 
37 | CC(C)(O)C#Cc1cnc(N)c(C(=O)Nc2ccccc2)n1 [II-81, 3-Amino-6-(3-hydroxy-3-methyl-but-1-ynyl)-N-phenyl-pyrazine-2-carboxamide] | 500 to 1000 nM | 
38 | Cc1ccc2nc(-c3nc(C#CCO)cnc3N)[nH]c2c1 [II-82, 3-[5-Amino-6-(6-methyl-1H-benzimidazol-2-yl)pyrazin-2-yl]prop-2-yn-1-ol] | 500 to 1000 nM | 
